The results in this text go back to patent US8080540B2, “Therapeutically active triazoles and their use” (Abbott Products GmbH, priority 2006, dated 2011).

The experiment deals with T1, recombinant human 17β-HSD1 (Homo sapiens, UniProt P14061).
T1 construct: made in house; host or cells: Sf9 insect cells (baculovirus, Bac to Bac Expression System); microsomal fraction used
T1 sequence (P14061 1-328): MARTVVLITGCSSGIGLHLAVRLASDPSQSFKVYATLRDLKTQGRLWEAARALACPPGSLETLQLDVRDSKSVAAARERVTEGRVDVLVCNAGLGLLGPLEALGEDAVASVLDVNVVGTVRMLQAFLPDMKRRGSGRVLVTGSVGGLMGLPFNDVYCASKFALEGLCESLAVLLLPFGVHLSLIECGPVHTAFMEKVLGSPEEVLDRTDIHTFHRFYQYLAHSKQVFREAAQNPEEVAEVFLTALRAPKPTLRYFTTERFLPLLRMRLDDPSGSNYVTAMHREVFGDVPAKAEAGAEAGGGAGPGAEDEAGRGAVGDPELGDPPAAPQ
In words: Inhibition of recombinant human 17β-HSD1 (HPLC assay, conversion of 3H-estrone to estradiol). The format is biochemical. As to conditions: 0.5 h, 30 nM 3H-estrone, 1 mM NADPH, 30 min RT, read-out: inhibition of rec. 17 β-HSD1; for inhibition at 0.1 µM: 100 nM inhibitor; for inhibition at 1 µM: 1 μM inhibitor. Here is the method: 17β-HSD1 purification: Recombinant baculovirus was generated by the “Bac to Bac Expression System” (Invitrogen). Recombinant bacmid was transfected to Sf9 insect cells using “Cellfectin Reagent” (Invitrogen). 60 h later cells were harvested; the microsomal fraction was isolated as described by Puranen et al. (1994). Aliquots were stored frozen until determination of enzymatic activity. Assay—Inhibition of recombinant human 17β-HSD1: Recombinant protein (0.1 μg/ml) was incubated in 20 mM KH2PO4 pH 7.4 with 30 nM 3H-estrone and 1 mM NADPH for 30 min at RT, in the presence of potential inhibitors at concentrations of 1 μM or 0.1 μM. Inhibitor stock solutions were prepared in DMSO. Final concentration of DMSO was adjusted to 1% in all samples. The enzyme reaction was stopped by addition of 10% trichloroacetic acid (final concentration). Samples were centrifuged in a microtiter plate at 4000 rpm for 10 min. Supernatants were applied to reverse phase HPLC on a Waters Symmetry C18 column, equipped with a Waters Sentry Guard column. Isocratic HPLC runs were performed at RT at a flow rate of 1 ml/min of acetonitrile:water 48:52 as running solvent. Radioactivity was monitored in the eluate by a Packard Flow Scintillation Analyzer. Total radioactivity for estrone and estradiol were determined in each sample and percent conversion of estrone to estradiol was calculated according to the following formula: [formula] • Percent inhibition was calculated as follows: % inhibition=100−% conversion The values “% inhibition” were determined for exemplified compounds, and the results are summarized in table 4 (for 17β-HSD1).

As usually defined, the inhibition is the relative decrease from the control value, in per cent. For `CC(C)Cc1cn(CCCCCC[C@@H]2CC(=O)[C@@]3(C)CC[C@@H]4c5ccc(O)cc5CC[C@H]4[C@H]23)nn1` [Compound 58], the inhibition at 0.1 µM was determined as 20% and the inhibition at 1 µM stood at 70%.
As for `COc1ccc2c(c1)CC[C@H]1[C@@H]3[C@H](CCCn4cc(-c5ccc(CO)cc5)nn4)CC(=O)[C@@]3(C)CC[C@H]21` [Compound 60], the inhibition at 0.1 µM worked out at 19% and the inhibition at 1 µM was determined as 69%.
In the same order, the values of `CC(C)CCc1cn(CCCC[C@@H]2CC(=O)[C@@]3(C)CC[C@@H]4c5ccc(O)cc5CC[C@H]4[C@H]23)nn1` [Compound 48] are 21% and 73%.
Consider `COc1ccc2c(c1)CC[C@H]1[C@@H]3[C@H](CCCCn4cc(CO)nn4)CC(=O)[C@@]3(C)CC[C@H]21` [Compound 122], for which the inhibition at 0.1 µM was 5% and the inhibition at 1 µM worked out at 38%.
In the same order, the values of `COc1ccc2c(c1)CC[C@H]1[C@@H]3[C@H](CCCn4cc(-c5ccccc5[N+](=O)[O-])nn4)CC(=O)[C@@]3(C)CC[C@H]21` [Compound 37] are 25% and 80%.
In the same order, the values of `COc1ccc2c(c1)CC[C@H]1[C@@H]3[C@H](CCCCn4cc(-c5ccc(C)cc5)nn4)CC(=O)[C@@]3(C)CC[C@H]21` [Compound 112] are 12% and 43%.
`C[C@]12CC[C@@H]3c4ccc(O)cc4CC[C@H]3[C@@H]1[C@H](CCCCCCn1cc(-c3cccc(O)c3)nn1)CC2=O` [Compound 100]: the inhibition at 0.1 µM is 7% and the inhibition at 1 µM was found to be 48%.
On to `COc1ccc2c(c1)CC[C@H]1[C@@H]3[C@H](CCCn4cc(-c5ccsc5)nn4)CC(=O)[C@@]3(C)CC[C@H]21` [Compound 59], for which the inhibition at 0.1 µM stood at 18% and the inhibition at 1 µM was 69%.
In the same order, the values of `C[C@]12CC[C@@H]3c4ccc(O)cc4CC[C@H]3[C@@H]1[C@H](CCCCn1cc(CCc3ccccc3)nn1)CC2=O` [Compound 33] are 20% and 80%.
In the case of `COc1ccc2c(c1)CC[C@H]1[C@@H]3[C@H](CCCCn4cc(C5CC5)nn4)CC(=O)[C@@]3(C)CC[C@H]21` [Compound 111], the inhibition at 0.1 µM stood at 4% and the inhibition at 1 µM amounted to 43%.
As for `COc1ccc2c(c1)CC[C@H]1[C@@H]3[C@H](CCCn4cc(C5CC5)nn4)CC(=O)[C@@]3(C)CC[C@H]21` [Compound 41], the inhibition at 0.1 µM is 23% and the inhibition at 1 µM came out at 77%.
With `Cc1ccc(-c2cn(CCC[C@H]3CC(=O)[C@@]4(C)CC[C@@H]5c6ccc(O)cc6CC[C@H]5[C@H]34)nn2)cc1` [Compound 25, 3-Hydroxy-15α-[3-(4-p-tolyl-[1,2,3]triazol-1-yl)-propyl]-estra-1,3,5(10)-trien-17-one], the inhibition at 0.1 µM stood at 49% and the inhibition at 1 µM worked out at 85%.
Turning to `C[C@]12CC[C@@H]3c4ccc(O)cc4CC[C@H]3[C@@H]1[C@H](CCn1cc(-c3cc(F)cc(F)c3)nn1)CC2=O` [Compound 5, 3-Hydroxy-15β-{2-[4-(3,5-Difluoro-phenyl)-[1,2,3]triazol-1-yl]-ethyl}-estra-1,3,5(10)-trien-17-one], the inhibition at 0.1 µM stood at 87% and the inhibition at 1 µM is 95%.
For the molecule `COc1ccc(-c2cn(CCC[C@H]3CC(=O)[C@@]4(C)CC[C@@H]5c6ccc(O)cc6CC[C@H]5[C@H]34)nn2)cc1` [Compound 20, 3-Hydroxy-15α-{3-[4-(4-methoxy-phenyl)-[1,2,3]triazol-1-yl]-propyl}-estra-1,3,5(10)-trien-17-one], the inhibition at 0.1 µM worked out at 51% and the inhibition at 1 µM was found to be 87%.
In the same order, the values of `CC(C)CCc1cn(CCCCCC[C@@H]2CC(=O)[C@@]3(C)CC[C@@H]4c5ccc(O)cc5CC[C@H]4[C@H]23)nn1` [Compound 69] are 30% and 64%.
Taken in the same sequence, the figures for `C[C@]12CC[C@@H]3c4ccc(O)cc4CC[C@H]3[C@@H]1[C@@H](CCCn1cc(CCc3ccccc3)nn1)CC2=O` [Compound 16, 3-Hydroxy-15α-[3-(4-phenethyl-[1,2,3]triazol-1-yl)-propyl]-estra-1,3,5(10)-trien-17-one] were 38% and 89%.
